# According to article PMC10288273, “Allosteric Activation of Transglutaminase 2 via Inducing an “Open” Conformation for Osteoblast Differentiation” (Advanced Science, 2023):
# Target: T1, TGM2 (in MC3T3-E1 cells) (Mus musculus, UniProt P21981)
# T1 construct: native full-length protein in MC3T3-E1 pre-osteoblast cells
# T1 sequence (P21981 2-686): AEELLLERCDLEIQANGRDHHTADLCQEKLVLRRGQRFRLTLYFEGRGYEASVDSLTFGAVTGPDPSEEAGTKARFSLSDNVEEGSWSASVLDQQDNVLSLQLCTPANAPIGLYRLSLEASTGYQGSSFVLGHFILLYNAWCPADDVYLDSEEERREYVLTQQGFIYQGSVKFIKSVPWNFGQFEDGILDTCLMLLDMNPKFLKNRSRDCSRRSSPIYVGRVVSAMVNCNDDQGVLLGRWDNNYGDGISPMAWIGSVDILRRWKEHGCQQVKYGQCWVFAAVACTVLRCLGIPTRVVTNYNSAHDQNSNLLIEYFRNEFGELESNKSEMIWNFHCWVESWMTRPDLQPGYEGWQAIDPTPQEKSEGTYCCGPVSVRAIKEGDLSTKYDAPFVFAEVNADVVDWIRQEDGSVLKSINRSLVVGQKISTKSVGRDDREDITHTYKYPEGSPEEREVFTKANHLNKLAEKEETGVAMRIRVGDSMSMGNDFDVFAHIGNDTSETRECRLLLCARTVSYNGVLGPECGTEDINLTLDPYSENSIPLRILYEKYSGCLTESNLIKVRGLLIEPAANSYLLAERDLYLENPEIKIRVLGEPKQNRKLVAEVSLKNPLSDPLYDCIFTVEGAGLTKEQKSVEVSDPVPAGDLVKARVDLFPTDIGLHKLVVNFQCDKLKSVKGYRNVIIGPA
# Assay: CETSA; DARTS
# Format: cell-based
smiles,measurement,value
C=C[C@@]1(C)CC(=O)[C@]2(O)[C@@]3(C)[C@@H](O)CCC(C)(C)[C@@H]3[C@H](O)[C@H](OC(C)=O)[C@@]2(C)O1 [Forskolin],thermal stabilisation (CETSA),FSK enhanced the thermal stability of TGM2
